Source: ChEMBL document CHEMBL1201862, “PubChem BioAssay data set” (2004)
Active and inactive are the calls of the source.

Legend:
[1] = target: T1, Adenosylmethionine-8-amino-7-oxononanoate aminotransferase (Mycobacterium tuberculosis, UniProt P9WQ81); test: Mycobacterium tuberculosis BioA enzyme inhibitor Measured in Biochemical System Using Plate Reader - 2163-02_Inhibitor_Dose_CherryPick_Activity.; type: functional, Mycobacterium tuberculosis UT205
T1 sequence (P9WQ81 whole entry): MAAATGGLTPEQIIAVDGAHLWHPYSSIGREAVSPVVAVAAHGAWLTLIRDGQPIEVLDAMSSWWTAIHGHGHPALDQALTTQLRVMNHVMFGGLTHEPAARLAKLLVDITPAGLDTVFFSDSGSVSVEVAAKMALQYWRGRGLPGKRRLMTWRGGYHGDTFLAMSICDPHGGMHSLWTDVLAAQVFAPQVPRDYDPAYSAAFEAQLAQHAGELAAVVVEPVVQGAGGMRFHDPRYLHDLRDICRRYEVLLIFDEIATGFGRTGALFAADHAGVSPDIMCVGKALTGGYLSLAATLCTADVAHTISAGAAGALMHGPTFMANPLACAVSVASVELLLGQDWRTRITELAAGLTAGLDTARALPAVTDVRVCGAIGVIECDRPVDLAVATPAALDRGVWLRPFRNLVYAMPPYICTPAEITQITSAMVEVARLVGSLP

[2] = Luminescence Cell-Based Dose Retest to Confirm Inhibitors of Cancer Stem Cells. [Related pubchem assays (depositor defined):AID2717, AID2721]; type: functional; details: Homo sapiens
[3] = intracellular Trypanosoma cruzi inhibitors in host cells – cell-based, plate reader, cherry-pick samples, set 3, dose response (AID 651818); type: functional;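 further: compounds incubated with infected cells for about four days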
Paired box protein Pax-8 = Paired box protein Pax-8 (Homo sapiens, UniProt Q06710); test: inhibitors of PAX8-driven TPO luciferase reporter, dose response, RMG-I cells, cherry-pick (AID 687027); type: functional, cell-based;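 further: luciferase reporter driven by Pax8 target thyroperoxidase promoter measured by SteadyGlo luminescence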
Paired box protein Pax-8, sequence (Q06710 whole entry): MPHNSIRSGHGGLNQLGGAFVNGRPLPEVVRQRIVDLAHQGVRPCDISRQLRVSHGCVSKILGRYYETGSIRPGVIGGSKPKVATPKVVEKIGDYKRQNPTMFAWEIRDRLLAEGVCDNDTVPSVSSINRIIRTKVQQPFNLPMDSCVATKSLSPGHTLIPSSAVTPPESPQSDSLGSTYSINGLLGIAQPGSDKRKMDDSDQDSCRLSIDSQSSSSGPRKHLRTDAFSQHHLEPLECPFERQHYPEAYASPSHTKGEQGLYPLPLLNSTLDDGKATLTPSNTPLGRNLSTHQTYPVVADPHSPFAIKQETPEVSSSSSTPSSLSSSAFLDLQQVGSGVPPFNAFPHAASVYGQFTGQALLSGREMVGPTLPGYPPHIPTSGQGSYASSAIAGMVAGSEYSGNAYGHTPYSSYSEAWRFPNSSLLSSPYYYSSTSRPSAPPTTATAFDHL

cells [4] = type: functional, cell-based
cells [5] = type: functional, cell-based; remark: listed apart in the source
[6] = A549 cell cytotoxicity, dose response, cytotoxicity control, plate reader, cherry-pick, antagonist series (AID 743412); type: functional, cell-based
[7] = LGR2 antagonists, dose response, cell-based, HEK293, CRE-luciferase reporter, cherry pick, set 2 (AID 743343); type: functional;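 further: transfected cells were stimulated with diluted bursicon conditioned medium after compound addition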
[8] = MC4R antagonists, dose response, counter-screen for LGR2 antagonist project, cell-based, plate reader, cherry pick (AID 743444); type: functional;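 further: transfected HEK 293 cells stimulated with alpha-MSH peptide; potency of inhibitors of the alpha-MSH evoked signal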
[9] = target: T2, Fructose-bisphosphate aldolase (Mycobacterium tuberculosis, UniProt P9WQA3); test: Fluorescence-based biochemical high throughput dose response assay for inhibitors of the fructose-bisphosphate aldolase (FBA) of M. tuberculosis.; type: functional
T2 sequence (P9WQA3 whole entry): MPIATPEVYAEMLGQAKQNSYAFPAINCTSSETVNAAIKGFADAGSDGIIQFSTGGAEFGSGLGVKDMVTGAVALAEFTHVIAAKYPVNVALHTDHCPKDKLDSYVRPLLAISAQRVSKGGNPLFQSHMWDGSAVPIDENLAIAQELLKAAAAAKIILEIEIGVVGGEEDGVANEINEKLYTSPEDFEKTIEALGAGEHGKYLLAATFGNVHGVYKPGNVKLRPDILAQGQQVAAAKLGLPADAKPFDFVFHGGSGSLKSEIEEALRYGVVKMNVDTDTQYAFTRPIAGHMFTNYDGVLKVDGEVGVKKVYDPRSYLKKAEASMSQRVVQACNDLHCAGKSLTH

[10] = Luminescence-based cell-based high throughput dose response assay to identify activators of the DAF-12 from the parasite S. stercoralis (ssDAF-12).; type: functional
[11] = target: Nuclear receptor subfamily 5 group A member 2 (Homo sapiens, UniProt O00482); type: functional, cell-based;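 further: HEK293T cells transfected with LRH-1 and a StAR promoter luciferase reporter; potency for inhibitors that lower LRH-1 driven reporter light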
Nuclear receptor subfamily 5 group A member 2, sequence (O00482 whole entry): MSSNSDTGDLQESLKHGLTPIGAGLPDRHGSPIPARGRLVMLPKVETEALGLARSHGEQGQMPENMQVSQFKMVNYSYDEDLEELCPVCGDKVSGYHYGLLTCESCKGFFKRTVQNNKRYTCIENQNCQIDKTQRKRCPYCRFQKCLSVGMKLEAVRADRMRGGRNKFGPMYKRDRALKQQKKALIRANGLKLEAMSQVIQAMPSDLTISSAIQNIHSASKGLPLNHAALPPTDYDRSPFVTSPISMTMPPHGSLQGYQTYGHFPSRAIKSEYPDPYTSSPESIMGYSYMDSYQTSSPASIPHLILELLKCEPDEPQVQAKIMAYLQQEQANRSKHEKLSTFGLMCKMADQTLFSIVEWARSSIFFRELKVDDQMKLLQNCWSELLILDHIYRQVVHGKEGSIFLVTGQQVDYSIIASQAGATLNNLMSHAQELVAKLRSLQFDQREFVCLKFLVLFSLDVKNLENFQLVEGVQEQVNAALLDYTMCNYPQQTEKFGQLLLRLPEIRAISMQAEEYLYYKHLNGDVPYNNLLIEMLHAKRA

Steroidogenic factor 1 = Steroidogenic factor 1 (Homo sapiens, UniProt Q13285); test: Counterscreen for inverse agonists of the liver receptor homolog-1 (LRH-1; NR5A2): Luminescence-based cell-based high throughput dose response assay to identify inverse agonists of the Steroidogenic Factor 1 Nuclear Receptor (SF1; NR5A1).; type: functional
Steroidogenic factor 1, sequence (Q13285 whole entry): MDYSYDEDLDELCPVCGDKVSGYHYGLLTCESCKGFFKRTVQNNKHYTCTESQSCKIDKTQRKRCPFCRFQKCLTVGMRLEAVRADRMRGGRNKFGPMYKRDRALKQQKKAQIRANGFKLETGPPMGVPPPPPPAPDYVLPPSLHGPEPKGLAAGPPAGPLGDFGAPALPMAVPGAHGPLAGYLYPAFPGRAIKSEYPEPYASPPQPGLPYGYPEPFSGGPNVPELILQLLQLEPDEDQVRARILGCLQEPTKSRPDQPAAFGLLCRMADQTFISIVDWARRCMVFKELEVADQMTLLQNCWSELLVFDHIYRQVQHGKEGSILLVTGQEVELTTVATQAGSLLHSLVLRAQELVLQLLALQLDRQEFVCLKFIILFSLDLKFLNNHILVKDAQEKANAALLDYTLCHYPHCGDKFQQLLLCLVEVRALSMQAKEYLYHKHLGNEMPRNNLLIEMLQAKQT

[12] = StAR promoter reporter inhibition counter-screen, dose response, counter-screen for LRH-1 inverse agonist project, cell-based, luminescence, luciferase reporter (AID 651969); type: functional
[13] = target: T3, Oxysterols receptor LXR-beta (Homo sapiens, UniProt P55055); type: functional, cell-based;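 further: agonist activity at LXR measured by a cell-based luminescence readout across a dose range, run as a counterscreen for daf-12 agonists; HEK293 cells with Gal4-LXR fusion and GAL4-driven luciferase reporter; potency for activation of Gal4-LXR reporter so compounds are agonists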
T3 sequence (P55055 whole entry): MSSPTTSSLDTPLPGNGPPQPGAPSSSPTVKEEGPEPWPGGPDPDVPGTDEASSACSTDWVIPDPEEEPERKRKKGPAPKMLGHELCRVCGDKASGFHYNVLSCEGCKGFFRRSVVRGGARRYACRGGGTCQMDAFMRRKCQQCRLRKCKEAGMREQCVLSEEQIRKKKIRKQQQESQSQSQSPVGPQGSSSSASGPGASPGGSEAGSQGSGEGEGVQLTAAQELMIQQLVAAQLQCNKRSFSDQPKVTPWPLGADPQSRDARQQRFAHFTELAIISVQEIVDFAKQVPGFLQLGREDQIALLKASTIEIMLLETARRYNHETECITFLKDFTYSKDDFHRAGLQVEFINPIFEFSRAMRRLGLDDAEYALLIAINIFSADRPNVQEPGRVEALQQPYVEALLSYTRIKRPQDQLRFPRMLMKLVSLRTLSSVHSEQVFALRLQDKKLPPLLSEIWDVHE

[14] = miR-122 activators in hepatoma reporter cells, dose response, cell-based, Huh7 psiCHECK-miR122, Renilla luciferase, cherry-picked (AID 651956); type: functional;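 further: huh7 hepatoma cells stably carrying a psiCHECK-2 miR-122 sensor plasmid; renilla luciferase signal reporting endogenous miR-122 activity after 48 h compound exposure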
[15] = Counterscreen for inhibitors of Trypanosoma brucei methionyl tRNA synthetase (MetRS): Luminescence-based cell-based high throughput dose response assay to identify compounds that are cytotoxic to Jurkat human T lymphocyte cells.; type: functional
[16] = target: T4, Methionyl-tRNA synthetase, putative (Trypanosoma brucei brucei, UniProt Q38C91); type: functional, Trypanosoma brucei brucei strain 927/4 GUTat10.1
T4 sequence (Q38C91 whole entry): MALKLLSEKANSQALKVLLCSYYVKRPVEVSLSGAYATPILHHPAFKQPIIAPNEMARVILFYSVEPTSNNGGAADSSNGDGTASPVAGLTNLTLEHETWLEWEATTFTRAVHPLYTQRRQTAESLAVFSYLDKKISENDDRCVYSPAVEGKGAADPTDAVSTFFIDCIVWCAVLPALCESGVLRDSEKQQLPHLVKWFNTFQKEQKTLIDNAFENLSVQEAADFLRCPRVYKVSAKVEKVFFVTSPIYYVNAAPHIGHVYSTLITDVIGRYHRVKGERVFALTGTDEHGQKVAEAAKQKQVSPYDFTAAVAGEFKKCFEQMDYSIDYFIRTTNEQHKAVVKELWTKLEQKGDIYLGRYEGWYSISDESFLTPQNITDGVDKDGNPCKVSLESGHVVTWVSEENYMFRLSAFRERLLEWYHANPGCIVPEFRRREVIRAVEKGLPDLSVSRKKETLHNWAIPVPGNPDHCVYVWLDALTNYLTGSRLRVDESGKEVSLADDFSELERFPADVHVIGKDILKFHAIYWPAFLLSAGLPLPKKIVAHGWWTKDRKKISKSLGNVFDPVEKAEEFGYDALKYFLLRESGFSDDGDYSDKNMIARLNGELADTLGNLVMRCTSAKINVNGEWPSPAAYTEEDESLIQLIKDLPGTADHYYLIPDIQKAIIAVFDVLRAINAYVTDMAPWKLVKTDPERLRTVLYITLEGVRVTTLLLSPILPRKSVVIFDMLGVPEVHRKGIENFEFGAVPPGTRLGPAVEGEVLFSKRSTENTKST

[17] = target: T4, Methionyl-tRNA synthetase, putative; type: functional, Trypanosoma brucei brucei strain 927/4 GUTat10.1; remark: listed apart in the source
Protein skinhead-1 = target: T5, Protein skinhead-1 (Caenorhabditis elegans, UniProt P34707); type: functional
T5 sequence (P34707 whole entry): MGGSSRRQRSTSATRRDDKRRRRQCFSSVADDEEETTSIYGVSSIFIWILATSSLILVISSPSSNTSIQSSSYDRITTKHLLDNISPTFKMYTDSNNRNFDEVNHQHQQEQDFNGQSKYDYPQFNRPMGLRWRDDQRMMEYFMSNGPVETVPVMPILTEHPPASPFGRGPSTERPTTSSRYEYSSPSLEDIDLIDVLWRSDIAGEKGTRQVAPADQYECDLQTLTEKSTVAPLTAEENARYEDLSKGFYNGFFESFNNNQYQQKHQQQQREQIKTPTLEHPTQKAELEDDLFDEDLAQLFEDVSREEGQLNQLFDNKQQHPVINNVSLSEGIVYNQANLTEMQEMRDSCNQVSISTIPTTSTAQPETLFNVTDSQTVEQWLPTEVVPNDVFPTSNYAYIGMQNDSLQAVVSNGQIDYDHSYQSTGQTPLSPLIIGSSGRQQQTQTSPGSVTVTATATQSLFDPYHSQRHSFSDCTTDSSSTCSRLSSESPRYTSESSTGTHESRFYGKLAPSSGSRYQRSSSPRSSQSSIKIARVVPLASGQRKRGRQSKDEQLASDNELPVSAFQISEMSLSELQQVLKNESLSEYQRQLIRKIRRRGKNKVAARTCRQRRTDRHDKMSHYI

[18] = HEK293T cytotoxicity, dose response, cytotoxicity control for miR-122 modulator project, cell-based, inhibitor set, cherry-pick, set 2 (AID 720697); type: functional

Structure (SMILES): CCN(CC)S(=O)(=O)c1ccc(NC(=O)c2ccc(Cl)nc2)cc1
- AC50 [1]: 6.89 µM (active)

Structure (SMILES): C[C@@H]1CN([C@@H](C)CO)C(=O)Cc2cc(NC(=O)Nc3ccc(C(F)(F)F)cc3)ccc2O[C@@H]1CN(C)S(=O)(=O)c1ccc(Cl)cc1
- AC50 [2]: 1.28 µM (active)
- AC50 [3]: 3.51 µM (active)
- AC50 (Paired box protein Pax-8): 10.3 µM (active)

Structure (SMILES): COc1ccccc1CCNCc1cc2c(cc1[N+](=O)[O-])OCO2
- IC50 (cells [4]): > 29.9 µM (inactive)
- EC50 (cells [5]): > 29.9 µM (inactive)

Structure (SMILES): COc1ccc(-c2cc(C(=O)Nc3cccc(O)c3)no2)cc1
- AC50 [6]: > 52 µM (inactive)
- AC50 [7]: 9.77 µM (active)
- AC50 [8]: 7.86 µM (active)

Structure (SMILES): COc1ccc2oc(=N)c(-c3nnc4n3CCCCC4)cc2c1
- IC50 [9]: 4.68 µM (active)

Structure (SMILES): CC(=O)c1ccc2c3c(cccc13)C(=O)N(CCc1ccccc1)C2=O
- IC50 (cells [4]): > 29.9 µM (inactive)
- EC50 (cells [5]): > 29.9 µM (inactive)
- IC50 [10]: > 67.5 µM (inactive)

Structure (SMILES): Cc1no[n+]([O-])c1COc1ccc(/C=N/n2nnnc2N)cc1
- IC50 [11]: 35.9 µM (inactive)
- IC50 (Steroidogenic factor 1): 12 µM (inactive)
- IC50 [12]: 35.9 µM (inactive)

Structure (SMILES): Cc1ccc(SCCSc2ncccn2)cc1
- EC50 [13]: > 67.5 µM (inactive)

Structure (SMILES): COC(=O)C1C(=O)C=C(Nc2ccc(F)cc2)CC1c1ccc(OC)cc1 (centres undefined)
- AC50 [1]: 1.01 µM (active)

Structure (SMILES): Cc1cccc(NC(=O)Nc2ccc3c(c2)C(=O)N(C)[C@@H]2CC[C@@H](CC(=O)NCc4ccccc4Cl)O[C@H]2CO3)c1
- AC50 [14]: 3.32 µM (active)

Structure (SMILES): CN(C(=O)CSc1nc2cc(Cl)ccc2[nH]1)C1CCS(=O)(=O)C1 (centres undefined)
- IC50 [15]: 83.2 µM (inactive)

Structure (SMILES): CN(C(=O)CSc1nc2ccc(Cl)cc2[nH]1)C1CCS(=O)(=O)C1 (centres undefined)
- IC50 [16]: 64.5 µM (inactive)
- IC50 [17]: 21.7 µM (inactive)

Structure (SMILES): CCOc1ccc(NC(=O)COC(=O)C2CCC(=O)N2)c([N+](=O)[O-])c1 (centres undefined)
- IC50 [11]: 35.8 µM (inactive)
- IC50 (Steroidogenic factor 1): 35.8 µM (inactive)
- IC50 [12]: 35.8 µM (inactive)

Structure (SMILES): Cc1noc(C)c1S(=O)(=O)Nc1ccc2c(c1)C(=O)N([C@H](C)CO)C[C@H](C)[C@H](CN(C)C(=O)Nc1ccc(C(F)(F)F)cc1)O2
- AC50 [3]: 4.97 µM (active)

Structure (SMILES): COc1ccc2c(c1)cc(C(=O)N[C@@H](Cc1ccccc1)C(=O)N[C@@H](C)C(=O)O)n2C
- IC50 [9]: 1.29 µM (active)

Structure (SMILES): OC(c1cccc(Cl)c1)c1nc(-c2ccc3ccccc3c2)c[nH]1 (centres undefined)
- IC50 [16]: 14.2 µM (inactive)
- IC50 [15]: 83.3 µM (inactive)
- IC50 [17]: 5.6 µM (active)

Structure (SMILES): Cc1noc(C)c1NC(=O)N(C)C[C@@H]1Oc2cc(C#CCC3CCCC3)ccc2S(=O)(=O)N([C@@H](C)CO)C[C@@H]1C
- AC50 [14]: 18.9 µM (active)

Structure (SMILES): C=C(C)n1c(=O)n(Cc2ccccc2C)c2ccccc21
- AC50 [1]: 1.32 µM (active)

Structure (SMILES): Cc1cc(OCC(=O)NCC(O)c2ccccc2)c2c(C)cc(=O)oc2c1 (centres undefined)
- IC50 [9]: 1.26 µM (active)

Structure (SMILES): C[C@H](CO)N1C[C@H](C)[C@H](CN(C)Cc2ccc(C(=O)Nc3ccccc3N)cc2)Oc2c(NS(=O)(=O)c3cccs3)cccc2C1=O
- AC50 [3]: 1.87 µM (active)

Structure (SMILES): COc1ccc(CNCCC(c2ccc(OC)cc2)c2ccccc2OC)cc1 (centres undefined)
- IC50 (Protein skinhead-1): > 100 µM (inactive)
- AC50 [18]: 3.94 µM (active)

Structure (SMILES): CCCN(CC(=O)Nc1ccc(C(N)=O)cc1)CC(=O)Nc1ccccc1C
- IC50 [11]: 5.11 µM (active)
- IC50 (Steroidogenic factor 1): 2.88 µM (active)
- IC50 [12]: 24.9 µM (inactive)
